Reference: publication PMC9448818 (Translational Psychiatry, 2022)

Tests used:
CYP2D6 = details: cited from earlier work
[1] = Dose-adjusted serum concentrations of drug and metabolite (LC-MS/MS) by CYP2C19 and CYP2D6 metabolizer group; assay type: in vivo, human; details: vs NM
Source text: The 16-week study protocol consisted of two phases following screening and baseline visits. […] Blood samples were collected on Weeks 2, 10, and 16 to measure medication levels and on Week 4 for pharmacogenetic analyses. The methods used for the quantification of serum levels of drug and metabolite concentrations is described in the Supplementary Methods.
Serum concentrations were adjusted for dosage (i.e., ng/mL/mg). Sampling time (i.e., hours since the last dose) was entered as a covariate in the regression models to account for when the medication was taken.
The CYP2C19 metabolizer group was not included as a fixed effect covariate, as CYP2C19 is not known to be involved in the metabolism of ARI. […]
Collection of blood samples and quantification of serum drug and metabolite concentrations Participants self-reported the time at which the last dosage of the study medication was taken during the collection of the blood samples. […]
major metabolites, (S-DCT) and (DHA), were performed at the CAMH Clinical Laboratory using LC-MS/MS technology. Briefly, a mix of deuterated internal standards (Cerilliant) was added to 100 µL of each serum specimen, calibrator (Cerilliant) and quality control (MassCheck Antidepressants/Neuroleptics, Level 1 and Level 2). Proteins were precipitated with 300 µL of 9:1 Acetonitrile:Methanol (Sigma-Aldrich) followed by 5 min centrifugation at 9000 rpm. 25 µL of each supernatant was diluted with 200 µL of 0.1% Formic acid (Sigma-Aldrich) and then analyzed on the LC-MS/MS platform consisting of ThermoFisher TSQ Quantum Ultra mass spectrometer coupled with ThermoFisher Surveyor LC pump and HTC PAL autosampler fitted with a Kinetex F5 2.6 µm, 100 x 2.1 mm column (Phenomenex). Six minute gradient elution with 0.1% Formic Acid (mobile phase A) and Acetonitrile (mobile phase B) was applied. Collision energies ranged from 14 to […]
calibration curve ranging from 10 to 1000 ng/mL for each analyte.
Vendor nominal means for quality controls were used to assess the assay accuracy for each of the four analytes […]
precision was considered acceptable assay performance.
Data was analyzed with ThemoFisher XCalibur software.

Compound: CNCCC[C@@]1(c2ccc(F)cc2)OCc2cc(C#N)ccc21 [S-DCT, S-desmethylcitalopram]
- inhibition of CYP2D6 in vitro (CYP2D6): weak inhibitors
- B, S-DCTadj concentrations in serum, CYP2C19 IM+PM ([1]; Week 2 (Phase I)): -0.04
- B, S-DCTadj concentrations in serum, CYP2C19 RM+UM ([1]; Week 2 (Phase I)): 0.04
- B, S-DCTadj concentrations in serum, CYP2D6 IM+PM ([1]; Week 2 (Phase I)): -0.08
- B, S-DCTadj concentrations in serum, CYP2C19 IM+PM ([1]; Week 10, ESC+ARI arm): -0.02
- B, S-DCTadj concentrations in serum, CYP2C19 RM+UM ([1]; Week 10, ESC+ARI arm): 0.14
- B, S-DCTadj concentrations in serum, CYP2D6 IM+PM ([1]; Week 10, ESC+ARI arm): -0.11
- B, S-DCTadj concentrations in serum, CYP2C19 IM+PM ([1]; Week 10, ESC-Only arm): -0.12
- B, S-DCTadj concentrations in serum, CYP2C19 RM+UM ([1]; Week 10, ESC-Only arm): 0.02
- B, S-DCTadj concentrations in serum, CYP2D6 IM+PM ([1]; Week 10, ESC-Only arm): -0.11
- B, S-DCTadj concentrations in serum, CYP2C19 IM+PM ([1]; Week 16, ESC+ARI arm): -0.12
- B, S-DCTadj concentrations in serum, CYP2C19 RM+UM ([1]; Week 16, ESC+ARI arm): 0.08
- B, S-DCTadj concentrations in serum, CYP2D6 IM+PM ([1]; Week 16, ESC+ARI arm): -0.12
- B, S-DCTadj concentrations in serum, CYP2C19 IM+PM ([1]; Week 16, ESC-Only arm): -0.09
- B, S-DCTadj concentrations in serum, CYP2C19 RM+UM ([1]; Week 16, ESC-Only arm): 0.07
- B, S-DCTadj concentrations in serum, CYP2D6 IM+PM ([1]; Week 16, ESC-Only arm): -0.12
